Measured values: patent publication US20080026076A1 (priority 2003, published 2008)
Entries after “also recorded” stand apart in the source; their conditions may differ. Marks after values point to notes of the source that are not given here.

Legend:
normotensive individuals = conditions: 1000 mg/day of quercetin for one month (Conquer et al.); cited from earlier work
[1] = tested on: prehypertensive and stage 1 hypertensive human subjects; assay: Randomized, placebo-controlled, double-blind crossover trial: blood pressure; type: in vivo; conditions: for Diastolic blood pressure, Endpoint / MAP, Endpoint / Systolic blood pressure, Endpoint: end of 4-week quercetin phase, 730 mg/day, mean ± SEM; for quercetin induced-lowering of systolic blood pressure: change from baseline
From the text: Systemic markers of oxidant load also were examined as secondary outcomes to determine if reductions in blood pressure were associated with lower indices of oxidative stress. This study was approved by the University of Utah Human Use Review Committee, University of Utah Institutional Review Board, and written informed consent was obtained from each participant. Recruitment efforts in the greater Salt Lake City area targeted males and females with prehypertension (120-139 mmHg systolic/80-89 mmHg diastolic) and Stage 1 hypertension (140-159 mmHg systolic/90-99 mmHg diastolic) as defined by The 7th Report Of The Joint National Committee On Prevention, Detection, Evaluation, And Treatment Of High Blood Pressure (32). […] The secondary hypothesis was that quercetin-induced reductions in blood pressure would be associated with lower indices of systemic oxidant stress. […] A 14-day washout period separated the two phases. Subjects were randomly assigned to begin either the quercetin or the placebo phase first. […] Clinic visits were conducted on overnight-fasted subjects in the morning hours at the beginning and end of the placebo and quercetin supplementation phases. Subjects were instructed not to exercise prior to their appointments. […] Blood pressure was a primary outcome variable and was obtained at each clinic visit by a trained observer using an Omron random zero automatic blood pressure analyzer as previously described (35). Each participant sat quietly for 5-10 minutes, after which their arm was placed at heart level and blood pressure and pulse rate were determined at least three times in 3-5 minute intervals. If blood pressure varied among these determinations by more than 10 mmHg, three additional trials were performed. The accumulated measurements then were averaged to determine overall systolic and diastolic pressure and pulse rate for each subject.

[2] = Ferric reducing antioxidant power (FRAP) of plasma; type: in vivo, human; conditions: for FRAP, Endpoint: end of quercetin phase
Description: (§1) Blood samples were collected after blood pressure was measured. Blood was collected by antecubital venipuncture from fasting subjects into sodium heparin tubes (Becton Dickinson, N.J., USA). Collected blood was immediately stored on ice and centrifuged within 10 minutes at 4° C. for 15 minutes at 2500 g as previously described (36).
FRAP measures the ability of an antioxidant to reduce Fe^3+ to Fe^2+ (40), and is an index of plasma antioxidant potential in hypertensive patients (41-44). This assay was done as previously described (39). Briefly, plasma samples were diluted 1:2 with phosphate buffered saline, followed by addition of a reagent solution containing 0.8 mmol/L 2,4,6-tri-(2-pyridyl)-s-tirazine and 1.7 mmol/l FeCl3.6-H2O. Samples were then incubated at 37° C. for 15 min and the absorbance at 593 nm was recorded in a plate reader (Molecular Devices, Spectramax 340 pc).

[3] = tested on: rats with abdominal aortic constriction (AAC) or sham operated; assay: Post-sacrifice morphometric measurements (body, heart and organ weights, heart rate) to assess cardiac hypertrophy; type: in vivo, rat; conditions: for Heart wt.: quercetin diet, mean ± SEM
From the text: In this procedure the abdominal aorta is constricted to increase the afterload on the heart and produce pressure overload. […] Rats consumed this diet for 7 days.
On the 8th day, 5 rats were surgically modeled for pressure overload by constricting the abdominal aorta to a diameter of 0.63 mm with a Weck hemoclip. The other 5 rats were sham operated (anesthetized and the aorta exposed, but not constricted). […] Another group of 10 rats were placed on a standard diet with no supplement and treated in an identical fashion with 5 surgically modeled for pressure overload and 5 sham operated. […] Two weeks after surgery post-sacrifice morphometric measurements are obtained by measuring total heart weight, left ventricle weight, and calculating heart:body weight and left ventricle:body weight ratios to assess cardiac mass and cardiac hypertrophy.
Post-sacrifice morphometric measurements are obtained by measuring body weight, total heart weight, calculating heart:body weight ratios and heart rate to assess cardiac mass and cardiac hypertrophy.

[4] = Plasma quercetin in trial subjects (HPLC); type: in vivo; conditions: human, oral
Description: as §1
Supernatants then were extracted with ethyl acetate and injected into an HPLC Discovery C18 column. The mobile phase was 1% acetic acid (solvent A) and 95% acetonitrile in 1% phosphoric acid (solvent B). The gradient elution was solvent B from 10 to 85% in 20 minutes, holding for 5 minutes before returning back to 10% for conditioning. A visible detector with 365 nm was used.

8-isoprostane F2α = assay: Urinary 8-isoprostane F2α, enzyme-linked immunoassay; type: in vivo, human; conditions: for Urinary Isoprostane, Endpoint: end of quercetin phase
Description: During each patient visit whole blood (˜50 μL) was obtained from a digit puncture to determine blood lipids (LDL, VLDL, HDL, total cholesterol) and glucose using a clinical Cholestech LDX blood analyzer (37). Prior to each patient visit, first morning urine was collected, brought to the laboratory, and stored at −80° C. for later analysis of isoprostane concentrations. Urine 8-isoprostane F2α is a measure of lipid peroxidation and can be used to estimate oxidative stress in humans (45-47). Quantification of 8-isoprostane F2α (also known as 8-epi-PGF2α or 8-iso-PGF2α) in urine samples was performed using a competitive enzyme-linked immunoassay kit (Cayman Chemical, Ann Arbor, Mich.) according to the manufacturers instructions.

[5] = tested on: NE precontracted aortic segments; assay: Vascular reactivity in segments of aorta, wire-type myograph; type: in vivo, rat
Description: Animals are anesthetized, the heart and aorta excised, and vascular reactivity is assessed in segments of aorta using a wire-type myograph.

[6] = both groups of hypertensive subjects
[7] = sham-operated Q-fed animals (n=10)

Structure (SMILES): O=c1c(O)c(-c2ccc(O)c(O)c2)oc2cc(O)cc(O)c12 [quercetin, 3,5,7,3′,4′-pentahydroxyflavone]
- blood pressure (normotensive individuals): no changes in blood pressure
- plasma quercetin concentrations (normotensive individuals): 427 ± 89 ng/mL
- Diastolic blood pressure, Endpoint ([1]; prehypertensive (n=22), baseline 85 ± 1): 83 ± 2 mmHg
- MAP, Endpoint ([1]; prehypertensive (n=22), baseline 101 ± 1): 98 ± 2 mmHg
- Systolic blood pressure, Endpoint ([1]; prehypertensive (n=22), baseline 133 ± 2): 128 ± 3 mmHg
- quercetin induced-lowering of systolic blood pressure ([1]; prehypertensive): −5.2 mmHg
- Diastolic blood pressure, Endpoint ([1]; stage 1 hypertensive (n=22), baseline 97 ± 1): 92 ± 2 mmHg
- MAP, Endpoint ([1]; stage 1 hypertensive (n=22), baseline 113 ± 1): 108 ± 2 mmHg
- Systolic blood pressure, Endpoint ([1]; stage 1 hypertensive (n=22), baseline 145 ± 2): 138 ± 2 mmHg
- quercetin induced-lowering of systolic blood pressure ([1]; stage 1 hypertensive): −7.2 mmHg
- carryover antihypertensive effect: mean arterial pressure at baseline of quercetin phase vs placebo phase ([1]; subjects that received quercetin treatment first): No differences were found
- fasting plasma FRAP, quercetin supplementation vs. placebo [2, 6]: not altered
- FRAP, Endpoint ([2]; prehypertensive (n=10), baseline 1080 ± 48): 1106 ± 61 µmol/L
- FRAP, Endpoint ([2]; stage 1 hypertensive (n=8), baseline 1056 ± 59): 1152 ± 69 µmol/L
- Heart wt. ([3]; AAC + Q (n = 9)): 1.18 ± 0.03^b g
- cardiac hypertrophy ([3]; AAC-Q rats compared with AAC and sham rats, two weeks after surgery): lower level of cardiac hypertrophy; also recorded: levels of hypertrophy in between S and AAC rats
- Heart wt. ([3]; Sham + Q (n = 10)): 1.01 ± 0.03^a g
- concentration at 1 week after end of supplementation [4]: 190 ± 9 ng/mL
- concentration at 4 weeks ([4]; 730 mg/day for 4 weeks, fasted, 235±35 after placebo): 480 ± 64 ng/mL
- fasting urinary 8-isoprostane F2α concentration, quercetin supplementation vs. placebo (8-isoprostane F2α; [6]): not altered
- Urinary Isoprostane, Endpoint (8-isoprostane F2α; prehypertensive (n=10), baseline 518 ± 55): 520 ± 75 ng/g creatine
- Urinary Isoprostane, Endpoint (8-isoprostane F2α; stage 1 hypertensive (n=8), baseline 822 ± 249): 549 ± 59 ng/g creatine
- maximal ACh-evoked relaxation ([5]; AAC-Q rats (n=9), untreated AAC 30±3): 44±3%
- SNP-evoked relaxation ([5]; AAC-Q rats (n=9), untreated AAC 56±3): 71±4%
- SNP-evoked relaxation [5, 7]: 71±5%
- maximal ACh-evoked relaxation [5, 7]: 38±4%
